# Patent US9255100B2 (BAYER INTELLECTUAL PROPERTY GMBH, priority 2010, dated 2016)
# Molecular target: T1, N-terminally GST-tagged human full length recombinant Mps-1 kinase (Homo sapiens, UniProt P33981)
# T1 construct: N-terminally GST-tagged human full length recombinant Mps-1 kinase; purchased Invitrogen, Karslruhe, Germany PV4071
# T1 sequence (P33981 1-857): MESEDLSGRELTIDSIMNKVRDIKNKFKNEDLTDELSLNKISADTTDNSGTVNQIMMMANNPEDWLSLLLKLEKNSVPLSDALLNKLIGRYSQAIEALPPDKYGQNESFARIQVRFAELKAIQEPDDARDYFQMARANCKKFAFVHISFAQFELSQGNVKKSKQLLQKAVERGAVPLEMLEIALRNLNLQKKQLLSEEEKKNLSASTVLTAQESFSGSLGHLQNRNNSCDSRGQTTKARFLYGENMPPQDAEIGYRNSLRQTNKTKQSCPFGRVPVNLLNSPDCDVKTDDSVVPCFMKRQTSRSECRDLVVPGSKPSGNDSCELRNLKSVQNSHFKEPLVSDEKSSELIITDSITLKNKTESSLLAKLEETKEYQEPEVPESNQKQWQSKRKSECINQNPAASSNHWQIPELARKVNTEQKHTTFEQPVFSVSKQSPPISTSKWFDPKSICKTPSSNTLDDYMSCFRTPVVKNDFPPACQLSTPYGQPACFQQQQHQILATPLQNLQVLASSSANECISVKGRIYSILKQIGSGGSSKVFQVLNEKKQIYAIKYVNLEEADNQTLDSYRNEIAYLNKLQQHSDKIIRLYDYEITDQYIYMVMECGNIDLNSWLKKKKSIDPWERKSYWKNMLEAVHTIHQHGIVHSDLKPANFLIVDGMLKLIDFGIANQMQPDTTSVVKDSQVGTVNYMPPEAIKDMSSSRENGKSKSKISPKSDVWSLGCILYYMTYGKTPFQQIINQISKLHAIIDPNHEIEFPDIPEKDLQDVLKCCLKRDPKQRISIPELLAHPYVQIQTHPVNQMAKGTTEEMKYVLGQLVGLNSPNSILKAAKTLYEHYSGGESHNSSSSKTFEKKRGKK
# Assay: Mps-1 kinase assay (TR-FRET)
# Format: biochemical
# Conditions: Mps1 IC50 [nM], 10 μM ATP, 1 μM peptide substrate, 60 min at 22° C.
# How it was run: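 GST-Mps-1 (full length, N-term tag) ~1 nM final, linear-range adjusted per lot; biotinylated peptide substrate. Detection: Eu-anti-pSer/Thr donor → SA-XLent acceptor TR-FRET, 1 h, 22° C. Inhibition of kinase activity.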
row,SMILES,IC50 [nM]
1,"COc1ccccc1Sc1cc(NCCC(F)(F)F)c2ncc(-c3ccc(C(=O)NC4CC4)c(C)c3)n2n1 [Example 55, N-cyclopropyl-4-{6-[(2-methoxyphenyl)sulfanyl]-8-[(3,3,3-trifluoropropyl)amino]imidazo[1,2-b]pyridazin-3-yl}-2-methylbenzamide]",1.2
2,"COc1cccc(Sc2cc(NCC(C)(C)O)c3ncc(-c4ccc(C(=O)NC5CC5)c(C)c4)n3n2)c1 [Example 61B, N-cyclopropyl-4-{8-[(2-hydroxy-2-methylpropyl)amino]-6-[(3-methoxyphenyl)sulfanyl]imidazo[1,2-b]pyridazin-3-yl}-2-methylbenzamide]",0.3
3,"Cc1cc(-c2cnc3c(NCC(C)(C)O)cc(Oc4ccccc4F)nn23)ccc1C(=O)NC1CC1 [Example 93, N-cyclopropyl-4-{6-(2-fluorophenoxy)-8-[(2-hydroxy-2-methylpropyl)amino]imidazo[1,2-b]pyridazin-3-yl}-2-methylbenzamide]",0.3
4,"CC(C)(O)CNc1cc(Sc2cccc(F)c2)nn2c(-c3ccc(C(=O)NC4CC4)cc3O)cnc12 [Example 62A, N-cyclopropyl-4-{6-[(3-fluorophenyl)sulfanyl]-8-[(2-hydroxy-2-methylpropyl)amino]imidazo[1,2-b]pyridazin-3-yl}-3-hydroxybenzamide]",0.2
5,"CC=Cc1cc(NCC(C)(C)O)c2ncc(-c3ccc(-c4cnc(C5CC5)[nH]4)cc3)n2n1 (mixture of isomers) [Example 2, 1-({3-[4-(2-Cyclopropyl-1H-imidazol-5-yl)phenyl]-6-[(1E/Z)-prop-1-en-1-yl]imidazo[1,2-b]pyridazin-8-yl}amino)-2-methylpropan-2-ol]",90.5
6,"CC(C)CNc1cc(-c2cccc(C(N)=O)c2)nn2c(-c3ccc(C(=O)NC4CC4)cc3)cnc12 [Example 114, 4-{6-(3-Carbamoylphenyl)-8-[(2-methylpropyl)amino]imidazo[1,2-b]pyridazin-3-yl}-N-cyclopropylbenzamide]",< 1
7,"C/C=C(\C)c1cc(NCCC(F)(F)F)c2ncc(-c3ccc(-c4cnc(C5CC5)[nH]4)cc3)n2n1 [Example 27, 6-[(2E)-But-2-en-2-yl]-3-[4-(2-cyclopropyl-1H-imidazol-5-yl)phenyl]-N-(3,3,3-trifluoropropyl)imidazo[1,2-b]pyridazin-8-amine]",33.2
8,"CSc1cc(NCC(C)C)c2ncc(-c3ccc(C(=O)NC4CC4)c(C)c3)n2n1 [Example 196, N-cyclopropyl-2-methyl-4-{8-[(2-methylpropyl)amino]-6-(methylsulfanyl)imidazo[1,2-b]pyridazin-3-yl}benzamide]",2.7
9,"Cc1cc(-c2cnc3c(NCC(C)(C)O)cc(Sc4cccc(O)c4)nn23)ccc1C(=O)NC1CC1 [Example 61A, N-cyclopropyl-4-{8-[(2-hydroxy-2-methylpropyl)amino]-6-[(3-hydroxyphenyl)sulfanyl]imidazo[1,2-b]pyridazin-3-yl}-2-methylbenzamide]",0.2
10,"Cc1cc(-c2cnc3c(NCC(C)(C)O)cc(C4=CCNCC4)nn23)ccc1C(=O)NC1CC1 [Example 42, N-cyclopropyl-4-{8-[(2-hydroxy-2-methylpropyl)amino]-6-(1,2,3,6-tetrahydropyridin-4-yl)imidazo[1,2-b]pyridazin-3-yl}-2-methylbenzamide]",7.8
11,"Cc1cc(-c2cnc3c(NCC(C)(C)O)cc(-c4cn[nH]c4)nn23)ccc1C(=O)NC1CC1 [Example 162, N-cyclopropyl-4-{8-[(2-hydroxy-2-methylpropyl)amino]-6-(1H-pyrazol-4-yl)imidazo[1,2-b]pyridazin-3-yl}-2-methylbenzamide]",64.9
12,"Cc1cc(-c2cnc3c(NCCC(F)(F)F)cc([S+]([O-])c4cccc(F)c4)nn23)ccc1C(=O)NC1CC1 (racemic) [Example 83B, (RS)—N-cyclopropyl-4-{6-[(3-fluorophenyl)sulfinyl]-8-[(3,3,3-trifluoropropyl)amino]imidazo[1,2-b]pyridazin-3-yl}-2-methylbenzamide]",0.8

# The remaining lines, values ahead:
row,IC50 [nM],SMILES
1,0.6,"Cc1cc(-c2cnc3c(NCC(C)(C)O)cc(Nc4ccc(F)cc4F)nn23)ccc1C(=O)NC1CC1 [Example 356, N-cyclopropyl-4-{6-[(2,4-difluorophenyl)amino]-8-[(2-hydroxy-2-methylpropyl)amino]imidazo[1,2-b]pyridazin-3-yl}-2-methylbenzamide]"
2,0.6,"Cc1ccc(F)cc1Nc1cc(NCCCC(F)(F)F)c2ncc(-c3ccc(C(=O)NC4CC4)c(C)c3)n2n1 [Example 448, N-cyclopropyl-4-{6-[(5-fluoro-2-methylphenyl)amino]-8-[(4,4,4-trifluorobutyl)amino]imidazo[1,2-b]pyridazin-3-yl}-2-methylbenzamide]"
3,0.2,"Cc1cc(-c2cnc3c(NCC4CC(F)(F)C4)cc(Oc4cccc(F)c4)nn23)ccc1C(=O)NC1CC1 [Example 330, N-cyclopropyl-4-[8-{[(3,3-difluorocyclobutyl)methyl]amino}-6-(3-fluoro-phenoxy)imidazo[1,2-b]pyridazin-3-yl]-2-methyl-benzamide]"
4,0.1,"Cc1cc(-c2cnc3c(NCCC(F)(F)F)cc(Nc4ccccc4F)nn23)ccc1C(=O)NC1CC1 [Example 369, N-cyclopropyl-4-{6-[(2-fluorophenyl)amino]-8-[(3,3,3-trifluoropropyl)amino]imidazo[1,2-b]pyridazin-3-yl}-2-methylbenzamide]"
5,0.2,"Cc1cc(-c2cnc3c(NCCC(F)(F)F)cc(Oc4ccc(F)c(F)c4)nn23)ccc1C(=O)NC1CC1 [Example 260, N-cyclopropyl-4-{6-(3,4-difluorophenoxy)-8-[(3,3,3-trifluoropropyl)amino]imidazo[1,2-b]pyridazin-3-yl}-2-methylbenzamide]"
6,1.4,"CNC(=O)c1ccc(-c2cnc3c(NCCC(F)(F)F)cc(Oc4cc(F)ccc4C)nn23)cc1C [Example 577, 4-{6-(5-fluoro-2-methylphenoxy)-8-[(3,3,3-trifluoropropyl)a-mino]imidazo[1,2-b]pyridazin-3-yl}-N,2-dimethylbenzamide]"
7,0.7,"Cc1cc(-c2cnc3c(NCCC(F)(F)F)cc(Oc4cccc(F)c4)nn23)ccc1C(=O)NC(C)C [Example 553, 4-{6-(3-fluorophenoxy)-8-[(3,3,3-trifluoropropyl)amino]imidazo[1,2-b]pyridazin-3-yl}-N-isopropyl-2-methylbenzamide]"
8,1.7,"CNC(=O)c1ccc(-c2cnc3c(NCCN4CCOCC4)cc(Oc4cc(F)ccc4C)nn23)cc1C [Example 566, 4-[6-(5-fluoro-2-methylphenoxy)-8-{[2-(morpholin-4-yl)ethyl]amino}imidazo[1,2-b]pyridazin-3-yl]-N,2-dimethylbenzamide]"
9,0.2,"Cc1cc(-c2cnc3c(NCCN4CCCC4)cc(Oc4cccc(F)c4)nn23)ccc1C(=O)NC1CC1 [Example 502, N-cyclopropyl-4-[6-(3-fluoro-phenoxy)-8-{[2-(pyrrolidin-1-yl)ethyl]amino}imidazo[1,2-b]pyridazin-3-yl]-2-methyl-benzamide]"
10,0.4,"Cc1cc(Nc2cc(NCCC(F)(F)F)c3ncc(-c4ccc(C(=O)NC5CC5)c(C)c4)n3n2)ccc1F [Example 428, N-cyclopropyl-4-{6-[(4-fluoro-3-methylphenyl)amino]-8-[(3,3,3-trifluoropropyl)amino]imidazo[1,2-b]pyridazin-3-yl}-2-methylbenzamide]"
11,1,"CCNC(=O)c1ccc(-c2cnc3c(NCC4CCOCC4)cc(Oc4cc(F)ccc4C)nn23)cc1C [Example 599, N-ethyl-4-{6-(5-fluoro-2-methylphenoxy)-8-[(tetrahydro-2H-pyran-4-ylmethyl)a-mino]imidazo[1,2-b]pyridazin-3-yl}-2-methylbenzamide]"
12,2.9,"CCNC(=O)c1ccc(-c2cnc3c(NCCOC)cc(Oc4cc(F)ccc4C)nn23)cc1C [Example 609, N-ethyl-4-{6-(5-fluoro-2-methylphenoxy)-8-[(2-methoxyethyl)a-mino]imidazo[1,2-b]pyridazin-3-yl}-2-methylbenzamide]"
13,30,"Cc1cc(-c2cnc3c(NCC(C)(C)O)cc(Sc4ccccn4)nn23)ccc1C(=O)NC1CC1 [Example 334, N-cyclopropyl-4-{8-[(2-hydroxy-2-methylpropyl)amino]-6-(pyridin-2-yl-sulfanyl)imidazo[1,2-b]pyridazin-3-yl}-2-methyl-benzamide]"
14,2,"Cc1cc(-c2cnc3c(NCC(O)C(F)(F)F)cc(-c4ccnn4C)nn23)ccc1C(=O)NC1CC1 (racemic) [Example 208, (RS)—N-cyclopropyl-2-methyl-4-{6-(1-methyl-1H-pyrazol-5-yl)-8-[(3,3,3-trifluoro-2-hydroxypropyl)amino]imidazo[1,2-b]pyridazin-3-yl}benzamide]"
